Assay results from patent US9079930B2, “Substituted pyrimidines” (MERCK SHARP & DOHME CORP., priority 2011, dated 2015).

What follows are molecules tested against T1, FLAG-tagged full length PHD2 (Homo sapiens, UniProt Q9GZT9) (assay: PHD2 inhibition assay (time resolved fluorescence, HIF-1α peptide hydroxylation, VHL complex detection)). Conditions: 0.2 μM 2-oxoglutarate, 0.5 μM HIF-1α peptide.
T1 construct: FLAG-tagged full length PHD2 expressed in and purified from baculovirus-infected Sf9 cells; FLAG; made in house; host or cells: baculovirus-infected Sf9 cells
T1 sequence (Q9GZT9 whole entry): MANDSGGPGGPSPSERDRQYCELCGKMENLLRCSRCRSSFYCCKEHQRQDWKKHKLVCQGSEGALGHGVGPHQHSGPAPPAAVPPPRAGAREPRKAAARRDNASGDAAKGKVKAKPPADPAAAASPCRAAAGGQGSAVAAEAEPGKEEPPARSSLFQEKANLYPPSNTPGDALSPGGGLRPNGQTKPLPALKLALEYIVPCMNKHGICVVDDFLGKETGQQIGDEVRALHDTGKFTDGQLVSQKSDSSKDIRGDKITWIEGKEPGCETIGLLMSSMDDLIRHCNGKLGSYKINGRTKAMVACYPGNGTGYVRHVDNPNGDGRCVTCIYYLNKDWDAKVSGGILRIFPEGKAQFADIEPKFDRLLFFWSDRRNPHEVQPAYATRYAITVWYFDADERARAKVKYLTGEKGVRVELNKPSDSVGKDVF
Assay type: biochemical
Experimental: To each well of a 96-well plate was added 1 μL of test compound in DMSO and 20 μl of assay buffer (50 mM Tris pH 7.4/0.01% Tween-20/0.1 mg/ml bovine serum albumin/10 μM ferrous sulfate/i mM sodium ascorbate/20 μg/ml catalase) containing 0.15 μg/ml FLAG-tagged full length PHD2 expressed in and purified from baculovirus-infected Sf9 cells. After a 30 min preincubation at room temperature, the enzymatic reactions were initiated by the addition of 4 μL of substrates (final concentrations of 0.2 μM 2-oxoglutarate and 0.5 μM HIF-1α peptide biotinyl-DLDLEMLAPYIPMDDDFQL (SEQ ID NO: 1)). After 2 hr at room temperature, the reactions were terminated and signals were developed by the addition of a 25 μL quench/detection mix to a final concentration of 1 mM ortho-phenanthroline, 0.1 mM EDTA, 0.5 nM anti-(His)6 LANCE reagent (Perkin-Elmer Life Sciences), 100 nM AF647-labeled streptavidin (Invitrogen), and 2 μg/ml (His)6-VHL complex (S. Tan (2001) Protein Expr. Purif. 21, 224-234). The ratio of time resolved fluorescence signals at 665 and 620 nm was determined, and percent inhibition was calculated relative to an uninhibited control sample run in parallel.

Row | SMILES | IC50 [nM]
1 | C[C@@H](NC(=O)c1cnc(-c2cccnn2)nc1O)c1ccc(P(=O)(O)O)cc1 [Compound 3-5a, (R)-4-(1-(4-hydroxy-2-(pyridazin-3-yl)pyrimidine-5-carboxamido)ethyl)phenylphosphonic acid] | 20 to 100
2 | CCOP(=O)(OCC)c1ccc(C(C)C(=O)Nc2cnc(-n3cccn3)nc2O)cc1 (stereo not shown) [Compound 11-1, Diethyl 4-(1-(4-hydroxy-2-(1H-pyrazol-1-yl)pyrimidin-5-ylamino)-1-oxopropan-2-yl)phenylphosphonate] | 100 to 10000
3 | C[C@@H](NC(=O)c1cnc(-c2ccccn2)nc1O)c1ccc(P(=O)(O)O)cc1 [Compound 3-5, (R)-4-(1-(4-hydroxy-2-(pyridin-2-yl)pyrimidine-5-carboxamido)ethyl)phenylphosphonic acid] | 100 to 10000
4 | CCOP(=O)(O)c1ccc(C(NC(=O)c2cnc(-c3ccccn3)nc2O)c2ccccc2)cc1 (stereo not shown) [Compound 2-3, Ethyl 4-((4-hydroxy-2-(pyridin-2-yl)pyrimidine-5-carboxamido)(phenyl)methyl)phenylphosphonate] | 0.5 to 20
5 | CC(C)OP(=O)(OC(C)C)C(NC(=O)c1cnc(-c2ccccn2)nc1O)c1ccccc1 (stereo not shown) [Compound 6-1, Diisopropyl (4-hydroxy-2-(pyridin-2-yl)pyrimidine-5-carboxamido)(phenyl)methyl phosphonate] | 0.5 to 20
6 | CCOC(=O)C(C)(C)NP(=O)(NC(C)(C)C(=O)OCC)c1ccc(C(NC(=O)c2cnc(-c3ccccn3)nc2O)c2ccc(OC)cc2)cc1 (stereo not shown) [Compound 1-1-4, diethyl 2,2′-((4-((4-hydroxy-2-(pyridin-2-yl)pyrimidine-5-carboxamido)(4-methoxyphenyl)methyl)phenyl)phosphoryl)bis(azanediyl)bis(2-methylpropanoate)] | 0.5 to 20
7 | CCOP(C)(=O)c1ccc(C(NC(=O)c2cnc(-c3ccccn3)nc2O)c2ccccc2)cc1 (stereo not shown) [Compound 2-4, ethyl 4-((4-hydroxy-2-(pyridin-2-yl)pyrimidine-5-carboxamido)(phenyl)methyl)phenyl(methyl)phosphinate] | 0.5 to 20
8 | CCOP(=O)(OCC)c1ccc(C(NC(=O)c2cnc(-c3ccccn3)nc2O)c2ccc(OC)cc2)cc1 (stereo not shown) [Compound 1-1-1, Diethyl 4-((4-hydroxy-2-(pyridin-2-yl)pyrimidine-5-carboxamido)(4-methoxyphenyl)methyl)phenylphosphonate] | 0.5 to 20
9 | CCOP(=O)(OCC)c1ccc(C(C(=O)Nc2cnc(-n3cccn3)nc2O)c2ccccc2)cc1 (stereo not shown) [Compound 14-1, Diethyl 4-(2-(4-hydroxy-2-(1H-pyrazol-1-yl)pyrimidin-5-ylamino)-2-oxo-1-phenylethyl)phenylphosphonate] | 0.5 to 20
10 | CCOP(=O)(OCC)c1ccc(C(C(=O)Nc2cnc(-n3cccn3)nc2O)C(C)C)cc1 (stereo not shown) [Compound 13-1, Diethyl 4-(1-(4-hydroxy-2-(1H-pyrazol-1-yl)pyrimidin-5-ylamino)-3-methyl-1-oxobutan-2-yl)phenylphosphonate] | 20 to 100
11 | CC(NC(=O)c1cnc(-c2cccnn2)nc1O)c1ccc(P(=O)(O)O)cc1 (stereo not shown) [Compound 3-3a, 4-(1-(4-Hydroxy-2-(pyridazin-3-yl)pyrimidine-5-carboxamido)ethyl)phenylphosphonic acid] | 100 to 10000
12 | O=C(NC(c1ccccc1)c1ccc(P(=O)(O)O)cc1)c1cnc(-c2ccccn2)nc1O (stereo not shown) [Compound 2-2, 4-((4-hydroxy-2-(pyridin-2-yl)pyrimidine-5-carboxamido)(phenyl)methyl)phenyl phosphonic acid] | 0.5 to 20
13 | CCOP(=O)(OCC)c1ccc(C(C(=O)Nc2cnc(-c3cccnn3)nc2O)c2ccccc2)cc1 (stereo not shown) [Compound 14-2, Diethyl 4-(2-(4-hydroxy-2-(pyridazin-3-yl)pyrimidin-5-ylamino)-2-oxo-1-phenylethyl)phenylphosphonate] | 100 to 10000
14 | CCOP(=O)(OCC)c1ccc(C(C)(C)C(=O)Nc2cnc(-n3cccn3)nc2O)cc1 [Compound 12-1, Diethyl 4-(1-(4-hydroxy-2-(1H-pyrazol-1-yl)pyrimidin-5-ylamino)-2-methyl-1-oxopropan-2-yl)phenylphosphonate] | 100 to 10000
15 | CCOP(=O)(OCC)c1ccc(C(NC(=O)c2cnc(-c3cccnn3)nc2O)c2ccccc2)cc1 (stereo not shown) [Compound 8-5, Diethyl 4-((4-hydroxy-2-(pyridazin-3-yl)pyrimidine-5-carboxamido)(phenyl)methyl)phenylphosphonate] | 0.5 to 20
16 | CCOC(=O)CNP(=O)(NCC(=O)OCC)c1ccc(C(NC(=O)c2cnc(-c3ccccn3)nc2O)c2ccc(OC)cc2)cc1 (stereo not shown) [Compound 1-1-5, diethyl 2,2′-((4-((4-hydroxy-2-(pyridin-2-yl)pyrimidine-5-carboxamido)(4-methoxyphenyl)methyl)phenyl)phosphoryl)bis(azanediyl)diacetate] | 20 to 100
17 | CCOP(=O)(OCC)c1ccc(C(C)C(=O)Nc2cnc(-c3ccccn3)nc2O)cc1 (stereo not shown) [Compound 7-1, Diethyl 4-(1-(4-hydroxy-2-(pyridin-2-yl)pyrimidin-5-ylamino)-1-oxopropan-2-yl)phenyl phosphonate] | 100 to 10000

Continued, values first:

Row | IC50 [nM] | SMILES
18 | 100 to 10000 | C[C@H](NC(=O)c1cnc(-n2cccn2)nc1O)c1ccc(P(=O)(O)O)cc1 [Compound 15-3, (S)-4-(1-(4-hydroxy-2-(1H-pyrazol-1-yl)pyrimidine-5-carboxamido)ethyl)phenylphosphonic acid]
19 | 0.5 to 20 | CCOC(=O)CNP(=O)(NCC(=O)OCC)c1ccc(C(NC(=O)c2cnc(-c3cccnn3)nc2O)c2ccc(OC)cc2)cc1 (stereo not shown) [Compound 31-1, Diethyl 2,2′-((4-((4-hydroxy-2-(pyridazin-3-yl)pyrimidine-5-carboxamido)(4-methoxyphenyl)methyl)phenyl)phosphoryl)bis(azanediyl)diacetate]
20 | 100 to 10000 | O=C(Cc1cccc(P(=O)(O)O)c1)Nc1cnc(-c2cccnn2)nc1O [Compound 35-1, 3-(2-(4-hydroxy-2-(pyridazin-3-yl)pyrimidin-5-ylamino)-2-oxoethyl)phenyl phosphonic acid]
21 | 0.5 to 20 | CP(=O)(O)c1ccc([C@@H](NC(=O)c2cnc(-n3cccn3)nc2O)C2CCCCC2)cc1 [Compound 27-1, 4-((S)-cyclohexyl(4-hydroxy-2-(1H-pyrazol-1-yl)pyrimidine-5-carboxamido)methyl)phenyl(methyl)phosphinic acid]
22 | 0.5 to 20 | CP(=O)(O)c1cccc([C@@H](NC(=O)c2cnc(-n3cccn3)nc2O)c2ccccc2)c1 [Compound 25-1, 3-((S)-(4-hydroxy-2-(1H-pyrazol-1-yl)pyrimidine-5-carboxamido)(phenyl)methyl)phenyl(methyl)phosphinic acid]
23 | 20 to 100 | CC(C)OP(=O)(O)C(NC(=O)c1cnc(-c2ccccn2)nc1O)c1ccccc1 (stereo not shown) [Compound 6-2, Isopropyl Hydrogen (4-hydroxy-2-(pyridin-2-yl)pyrimidine-5-carboxamido)(phenyl)methylphosphonate]
24 | 0.5 to 20 | CP(=O)(O)c1ccc([C@H](NC(=O)c2cnc(-n3cccn3)nc2O)C2CCCCC2)cc1 [Compound 26-1, 4-((R)-cyclohexyl(4-hydroxy-2-(1H-pyrazol-1-yl)pyrimidine-5-carboxamido)methyl)phenyl(methyl)phosphinic acid]
25 | 0.5 to 20 | CCCP(=O)(O)c1ccc(C(NC(=O)c2cnc(-n3cccn3)nc2O)c2ccccc2)cc1 (stereo not shown) [Compound 16-1, 4-((4-hydroxy-2-(1H-pyrazol-1-yl)pyrimidine-5-carboxamido)(phenyl)methyl)phenyl(propyl)phosphinic acid]
26 | 100 to 10000 | CP(=O)(O)c1ccc([C@@H](NC(=O)c2cnc(-n3cc(F)cn3)nc2O)c2ccc(F)cc2)cc1 [Compound 28-1, 4-((S)-(2-(4-fluoro-1H-pyrazol-1-yl)-4-hydroxypyrimidine-5-carboxamido)(4-fluorophenyl)methyl)phenyl(methyl)phosphinic acid]
27 | 0.5 to 20 | COc1ccc(C(NC(=O)c2cnc(-c3cccnn3)nc2O)c2cccc(P(=O)(O)O)c2)cc1 (stereo not shown) [Compound 34-1, 3-((4-hydroxy-2-(pyridazin-3-yl)pyrimidine-5-carboxamido)(4-methoxyphenyl)methyl)phenylphosphonic acid]
28 | 0.5 to 20 | CP(=O)(O)c1ccc([C@@H](NC(=O)c2cnc(-n3cccn3)nc2O)c2ccc(F)cc2F)cc1 [Compound 20-1, 4-((R)-(2,4-difluorophenyl)(4-hydroxy-2-(1H-pyrazol-1-yl)pyrimidine-5-carboxamido)methyl)phenyl(methyl)phosphinic acid]
29 | 0.5 to 20 | CCOC(=O)[C@H](C)NP(=O)(N[C@@H](C)C(=O)OCC)c1ccc(C(NC(=O)c2cnc(-c3cccnn3)nc2O)c2ccc(OC)cc2)cc1 (stereo partly drawn) [Compound 31-2, (2S,2′S)-Diethyl 2,2′-((4-((4-hydroxy-2-(pyridazin-3-yl)pyrimidine-5-carboxamido)(4-methoxyphenyl)methyl)phenyl)phosphoryl)bis(azanediyl)dipropanoate]
30 | 20 to 100 | CC(NC(=O)c1cnc(-n2cccn2)nc1O)c1ccc(P(=O)(O)O)cc1 (stereo not shown) [Compound 15-1, 4-(1-(4-hydroxy-2-(1H-pyrazol-1-yl)pyrimidine-5-carboxamido)ethyl)phenylphosphonic acid]
31 | 0.5 to 20 | O=C(NC(c1ccc2ccccc2c1)P(=O)(O)O)c1cnc(-c2cccnn2)nc1O (stereo not shown) [Compound 30-3, (4-Hydroxy-2-(pyridazin-3-yl)pyrimidine-5-carboxamido)(naphthalen-2-yl)methyl phosphonic acid]
